# Laboratory results from US8580776B2, “Compositions and methods for treating neurodegenerating diseases” (The Board of Trustees of the University of Illinois, priority 2007, dated 2013).
# Tests used:
# astrocyte marker GFAP = experiment: Glial activation: GFAP staining of brain sections; type: in vivo, mice
# Method: (§1) The effects of DSP4 treatment on glial activation were assessed in hippocampus and frontal cortex by staining for microglial marker Mac1 and astrocyte marker GFAP (FIG. 3). Sections from vehicle and DSP4 treated H6 mice brains were stained with antibodies directed against Mac1 to assess microglial activation (FIG. 3A-C); and GFAP to assess astrocyte activation (FIG. 3D-F). […] FIGS. 3G-3I show quantitative analysis of Mac1 (FIG. 3G-3H) and GFAP staining (FIG. 31).
# (§2) Hemibrains were fixed overnight in 4% paraformaldehyde in 0.1M phosphate buffer, then overnight in 10% sucrose in 0.1M phosphate buffer, and then frozen in isopentane at −30° C. Serial sections (35 um thick) were prepared on a cryostat, and stored in cryoprotective solution (0.1M phosphate buffer: ethyleneglycol:glycerol 30:40:30) at −20° C. […] Staining was quantified using software provided by the manufacturer (Zeiss AxioVision). GFAP and Mac1 staining was quantified in 3 different areas on each of 4 serial sections for each animal (n=3 or 4 for Mac1; n=7 or 9 for GFAP staining) The data was average area stained per section (as % total area) from DSP4-treated (n=3 for Mac1; n=7 for GFAP) and vehicle-treated (n=4 for Mac1; n=9 for GFAP) mice. […]
# microglial marker Mac1 = experiment: Glial activation: Mac1 staining of brain sections; type: in vivo, mice
# Method: as §1, §2
# IκBα = experiment: QPCR of IκBα mRNA in frontal cortex of DSP4-treated rats; type: in vivo, rat
# Method: In this experiment, the effects of DSP4 on tyrosine hydroxylase (TH) and IkBα expression were analyzed. Adult rat Sprague Dawley rats were treated with the selective neurotoxin DSP4 to lesion locus ceruleus (LC) noradrenergic neurons and deplete cortical NA levels as described in Example 1.
# RNA samples from control or DSP4-treated rats (n=4 each) were converted to cDNA and analyzed by QPCR for relative levels of tyrosine hydroxylase (TH) (FIG. 6A) in the locus ceruleus (LC).
# Total cytoplasmic RNA from tissues was prepared from cells using TRIZOL reagent according to manufacturer procedures (Invitrogen/GIBCO); aliquots were converted to cDNA using random hexamer primers, and mRNA levels were estimated by quantitative touchdown PCR (QPCR). Conditions were 35 cycles of denaturation at 94° C. for 10 s; annealing at 58-64° C. for 15 s; and extension at 72° C. for 20 s on a Corbett Rotorgene Real-Time PCR unit (Corbett, Australia). The PCR mastermix contained SYBR Green (1 μl diluted 1:10,000 SybrGreen I 10,000× concentrate, Molecular Probes, Eugene, Oreg.). Relative mRNA concentrations were calculated from the takeoff point of reactions using manufacturer's software. Melting curve analysis and agarose gel electrophoresis were performed to ensure production of single and corrected size products. […]
# LC noradrenergic neurons = experiment: Lesion of the locus coeruleus with DSP4 in H6 mice; type: in vivo; details: DSP4 5 mg per kg i.p. every two weeks, H6 mice from age 3-4 months, sacrificed at 9 months
# Method: Hemizygous male H6 mice (aged 3 to 4 months) were injected with vehicle or with DSP4 (5 mg per kg; i.p., every two weeks) and all mice were sacrificed at age 9 months. This protocol (a low, chronic dose) results in 70% loss of LC noradrenergic neurons. Brains were dissected, the left hemispheres were fast frozen in isopentane at −30° C. and stored at −80° C. for subsequent protein and RNA studies. The right hemispheres were processed for immunohistochemistry.
# A chronic treatment paradigm was chosen using a relatively low dose (5 mg/kg) which may better reproduce the slow onset of NA dysfunction that is seen with aging in humans, and a gradual rather than abrupt loss of LC neurons.
structure (smiles),measurement,setting,value
"CCN(CCCl)Cc1ccccc1Br [DSP4, N-(2-chloroethyl)-N-ethyl-2-bromobenzylamine]","GFAP staining, frontal cortex","astrocyte marker GFAP; low levels of staining, not shown",little effect
same,"increase in GFAP staining, hippocampus","astrocyte marker GFAP; versus vehicle, significant",approximately 68%
same,"Mac1 staining, hippocampus and frontal cortex",microglial marker Mac1; hippocampus effect not statistically significant,increased Mac1 staining in both regions
same,"increase in Mac1 staining, frontal cortex","microglial marker Mac1; versus vehicle, statistically significant",approximately 40%
same,cortical IκBα mRNA levels,IκBα; P<0.01,45 % versus control values
same,reduction of cortical IκBα mRNA levels,"IκBα; versus control values, n=4, P<0.01",55%
same,loss of LC noradrenergic (TH positive) neurons,LC noradrenergic neurons,70%
